# Patent publication US20230146795A1, “ENHANCEMENT OF ANTI-TUMOR ACTIVITY OF SHP2 INHIBITOR PYRIMIDINONE IN COMBINATION WITH NOVEL CANCER MEDICINES IN CANCERS” (TAIHO PHARMACEUTICAL CO., LTD., priority 2020, published 2023)
# Columns and labels:
# [1] = system: NCI-H358, MKN45, NCI-H23, RT 4, MV-4-11, RMG-I; test: Anti-proliferation assay, summary over the cell lines of table 3; type: cell-based
# Procedure: Cell lines were obtained from ATCC or Health Science Research Resources Bank.
# 384 well culture plate (781086, Greiner Bio-One International) was used for cell survival rate measurement assay. Each cell lines were collected by ordinary method, then suspended in indicated medium containing 10% fetal bovine serum in table 3. The number of cells seeded per well was set to 500 cells/20 μL. After incubation at 37° C. for 24 hours under 5% CO2, Compound 1 and additional compound having an antitumor effect or a vehicle (DMSO) was added to each well by using D300e Digital Dispenser (Tecan). The concentration of Compound 1 was set to 10 concentrations. The concentration of each anti-cancer reagents set to 8 concentrations including 0 nM. After adding the medicine to the cells, the cells were further incubated at 37° C. for 3 days under 5% CO2. Cell survival rates were calculated by adding 20 μL of CellTiter-Glo(registered trademark) 2. 0 (Promega) solution to each well, incubating the cells at room temperature for 10 minutes, and then measuring the chemiluminescence intensity of each well using a plate reader (ARVO).
# A combination index (CI) value at each combined concentration of the medicines was determined.
# [2] = system: human colorectal cancer cell line SW837; test: Antitumor effect on SW837 tumor subcutaneously implanted to SCID-Beige mouse; type: in vivo; conditions: Compound 1 alone, 25 mg/kg/day orally once a day for 28 days; day of assessment
# Procedure: The day at which the grouping was carried out was defined as Day 0.
# [3] = system: human pancreatic cancer cell line MIA PaCa-2 (KRAS mutation); test: Antitumor effect on MIA PaCa-2 tumor subcutaneously implanted to CB17 SCID mouse; type: in vivo; conditions: for T/C: once a day, Day 18
# Procedure: MIA PaCa-2 cell line carries KRAS mutation.
# A human pancreatic cancer line, MIA PaCa-2 (available from American Type Culture Collection), suspended in a mixture of PBS and Matrigel was subcutaneously implanted to male CB17 SCID mice at 7-10 weeks of age (Charles River UK) at 5×10^6 cells/100 μl/mouse. Tumors were measured with a pair of digital calipers, and tumor volumes (TV) were calculated by applying the formula for ellipsoid. Mice with TV of 146 to 360 mm^3 were assigned to study groups such that average TV was equal among groups.
# Oral administration of Compound 1 or its vehicle, and Compound 9 or its vehicle was started on Day 1. Compound 1 was dissolved in an acidified solution of 0.5% (w/v) hydroxypropyl methylcellulose (Sigma) and administered via oral gavage at 6 or 12 mg/kg/day. Compound 9 was suspended in 20% (v/v) PEG200 (Sigma) and 0.5% (w/v) methylcellulose (Sigma) and administered via oral gavage at 50 mg/kg/day. All treatments were given once a day for 21 consecutive days, except for the combination group receiving 12 mg/kg of Compound 1 and 50 mg/kg of Compound 9, in which the animals were treated for 5 days per week for 3 weeks.
# Antitumor effects were evaluated by comparing the median relative tumor volumes (RTV) between control- and treated groups. RTV was calculated by dividing TV on any test day by TV on Day 1, expressed as a percentage. T/C (%), as a measure of anti-tumor activity, was calculated by dividing median RTV values of each compound-administered group by median RTV of the control group receiving both vehicles.
# [4] = system: 394 cell lines that do not depend on KRAS; test: In vitro cell line screening, 2D monolayers (CellTiter-Glo), KRAS-independent panel; type: cell-based, human; conditions: Non-KRAS panel, sensitive = maximum inhibition greater than 50% relative to DMSO, max 3 μM Compound 1, 1 μM Compound 9, 120-hour incubation
# Procedure: Cells from human cancer cells lines (from commercial sources such as ATCC or ECCAC) were grown as 2D monolayers by seeding onto flat-bottom 96-well tissue culture plates (Corning). Cells were allowed to recover for 16-24 hours prior to compound treatment. Compounds or dimethyl sulfoxide (DMSO) were added at various combinations of compound concentrations in a final DMSO concentration of up to 0.5% (v/v). Following a total of 120-hour incubation, CellTiter-Glo reagent(registered trademark) (Promega) was added. Plates were incubated for 10 minutes with gentle shaking at room temperature to lyse the cells, then incubated for further 10 minutes at room temperature to stabilize luminescence signal. After mixing, the mixture was transferred to a fresh plate, and luminescence was determined on EnVision plate reader (Perkin Elmer).
# For both 3D and 2D assays, the combination was tested as matrix of various concentrations of Compound 1 and Compound 9. The maximum concentrations of Compound 1 and Compound 9 used were 3 μM and 1 μM, respectively. Signals were normalized to that of the average of the DMSO control wells. […] For each cell line, the maximum % inhibition values were obtained for Compound 1 alone, Compound 9 alone and the combination of both compounds. The degree of drug interaction (i.e. synergy, additivity or antagonism) was quantified for each cell line by the Bliss independence model using the Synergyfinder R package (Ref: He L. et al. (2018) Methods for High-throughput Drug Combination Screening and Synergy Scoring. In: von Stechow L. (eds) Cancer Systems Biology. Methods in Molecular Biology, vol 1711. Humana Press, New York, N.Y.). For each cell line, a single score metric, the sum of synergy and antagonism across screened drug concentrations (SUM_SYN_ANT) (Ref: Di Veroli G. Y. et al (2016) Bioinformatics 32(18):2866-2868), was calculated. Synergy was defined as a score of 21 or above.
compound,measurement,setting,value
"Cn1nc2ccc(-c3c[nH]c4nc(N5[C@H]6CC[C@@H]5[C@H](N)C6)n(C)c(=O)c34)c(Cl)c2c1Cl [Compound 1, 2-((1R,2R,4S)-2-amino-7-azabicyclo[2.2.1]heptan-7-yl)-5-(3,4-dichloro-2-methyl-2H-indazol-5-yl)-3-methyl-3,7-dihydro-4H-pyrrolo[2,3-d]pyrimidin-4-one]",anti-proliferation activity in combination,"[1]; with ALK, Her family (EGFR and HER2), BCR-ABL, FLT3, multi-kinase (PDGFR and VEGFR), c-kit inhibitor",synergistically enhanced
same,anti-proliferation activity in combination,[1]; with BCL2 inhibitor,synergistically enhanced
same,anti-proliferation activity in combination,[1]; with CDK4/6 inhibitor,synergistically enhanced
same,anti-proliferation activity in combination,[1]; with HDAC inhibitor,synergistically enhanced
same,anti-proliferation activity in combination,[1]; with PI3K inhibitor or AKT inhibitor,synergistically enhanced
same,anti-proliferation activity in combination,"[1]; with RAF inhibitor, MEK inhibitor or ERK inhibitor",synergistically enhanced
same,anti-proliferation activity in combination,[1]; with anthracycline antibiotics,synergistically enhanced
same,anti-proliferation activity in combination,[1]; with anti-metabolite,synergistically enhanced
same,anti-proliferation activity in combination,[1]; with microtubule inhibitor,synergistically enhanced
same,anti-proliferation activity in combination,[1]; with platinum antitumor agent,synergistically enhanced
same,anti-proliferation activity in combination,[1]; with topoisomerase inhibitor,synergistically enhanced
same,T/C (%),[2],65.0%
same,tumor response,[3]; Compound 1 alone 6 mg/kg/day,transient stasis
same,T/C,[3]; Compound 1 alone 6 mg/kg/day oral,58%
same,"partial regression (tumor shrinkage of 50% or above), mice",[3]; Compound 1 alone 12 mg/kg/day,2 out of 8
same,tumor response,[3]; Compound 1 alone 12 mg/kg/day,tumor stasis
same,T/C,[3]; Compound 1 alone 12 mg/kg/day oral,33%
same,Number of cell lines sensitive,[4],137
same,Number of cell lines sensitive (% of total),[4],(34.8) %
